Experimental data: patent US20260248809A1, “ESTRADIOL PRODRUGS AND METHODS OF USE THEREOF” (UNIVERSITY OF MARYLAND, BALTIMORE, priority 2022, published 2026)

What was measured:
[1] = test system: male mice; test: Acquisition, extinction and reinstatement of cued (Pavlovian) fear; type: in vivo, mouse; details: non-stressed orchiectomized males, 10 mm silastic implant
Description: Determine the role of E2 in the normal acquisition, extinction, and reinstatement of cued (Pavlovian) fear responses in males. The effect of orchiectomy on the acquisition, extinction, and reinstatement of fear in non-stressed male animals is determined. It has previously been reported that orchiectomy enhances tone conditioned freezing in male mice, which was prevented with systemic testosterone administration. It has also been reported that orchiectomy delayed extinction of fear responses in male rats. The role of E2 is known in mediating fear responses, extinction, and related cognitive functions in female rodents. Fear conditioning takes place in Coulbourn shuttle boxes. The floor of the chambers consists of parallel rods connected to a Coulbourn shock source that delivers foot shocks. A speaker mounted on the top of the chamber delivers an acoustic conditioned stimulus (pure tone). […] Mice are placed in the chamber for a 3 min habituation period, wherein baseline freezing to the novel context will be assessed. […] One week later, mice are assessed for reinstatement of the conditioned fear. […] Time spent freezing across CS presentations during the extinction procedure (Days 2 and 3) is assessed with Coulbourn automated FreezeFrame software. […] If differences between the groups are detected, then whether these effects are due to altered shock sensitivity, are assessed.

[2] = test system: TRPM-2, ODC, AR and ERα expression; details: in vivo; cited from earlier work
[3] = test system: C3 expression; details: rat, in vivo; cited from earlier work
[4] = test system: gonadectomized mice; test: Inescapable foot shock stress followed by female urine preference; type: in vivo, mouse; details: 10 mm silastic implant; for stress-induced female urine preference deficits: orchiectomized males, inescapable foot shock
Description: Determine effects of E2 on gonadectomy-induced susceptibility to inescapable traumatic shock stress in males and females. Most of these experiments assess the effects of social defeat stress. In this experiment the effects of an alternative type of stress-inescapable foot shocks are assessed—to determine whether the observed biological effects of E2 are stress specific. […] The effects of this stress on maladaptive behaviors and their possible reversal by testosterone and E2 are assessed. The following groups of mice are used for this experiment: (1) Sham Surgery+empty silastic tube; (2) ORX+empty silastic tube; (3) Sham Surgery+testosterone (10 mm) containing silastic tube; (4) ORX+testosterone (10 mm) containing silastic tube; (5) Sham Surgery+E2 (10 mm) containing silastic tube; (6) ORX+E2 (10 mm) containing silastic tube. Mice are exposed to inescapable foot shock (0.3 mA shocks; 180 shocks at 15 sec intervals) in a two-chambered shuttle box with a permanent divider in place. Controls are placed in the same chambers but will not receive shocks. Twenty-four hours later mice are subsequently tested for social interaction and female urine preference. As a comparison to male results, a similar experiment is conducted in females with the following groups: (1) Sham Surgery+empty silastic tube; (2) OVX+empty silastic tube; (3) Sham Surgery+E2 (10 mm) containing silastic tube; (4) OVX+E2 (10 mm) containing silastic tube. It is predicted that the effects of orchiectomy in males are reproduced to enhance stress-induced decreases in female urine preference deficits, which will be prevented by both testosterone and E2.

[5] = test system: male mice; test: Stress-moderated acquisition, extinction and reinstatement of fear; type: in vivo, mouse; details: orchiectomized males + subthreshold SDS, 10 mm silastic implant
From the text: Determine the role of E2 in stress-moderated acquisition, extinction, and reinstatement of fear responses in males. Animal approaches to study PTSD should include an inescapable severe stressor. These experiments assess interactions between a stress and the effects of E2. […] For either result, it is critical to understand if E2 mediates interactions with stress. This is because the acquisition of fear is an adaptive response that is not considered pathological in and of itself. However, veterans have often encountered stressful circumstances that lead to an exaggerated and pathological state of fear, which is both resistant to extinction and highly susceptible to relapse. Considering that social stress is an important risk factor contributing toward the onset of PTSD in response to a traumatic event, the social defeat stress paradigm is utilized in order to model the conditions under which veterans develop PTSD. […] It is anticipated that sub-threshold SDS (rather than 10 day) paradigm is sufficient to induce effects in orchiectomized mice. […] Mice are assessed for social interaction deficits 24 hours after the subthreshold defeat sessions to determine if they are resilient or susceptible. n=18/mice per group is used to account for only a subset of mice being susceptible to stress. […]

[6] = test system: ERβ-expressing BLA-to-NAc neurons; test: cFos immunofluorescence of ERβ projections to the NAc after E2 and SSDS; type: in vivo, mouse

SMILES	orchiectomy-enhanced fear conditioning and reduced rate of extinction [1]	expression of TRPM-2, ODC, AR and ERα in the prostate gland [2]	uterus C3 expression [3]	stress-induced female urine preference deficits [4]	effects of ovariectomy plus foot shock stress ([4]; ovariectomized females)	stress effect on extinction of conditioned fear and reinstatement [5]	activation of ERβ-expressing BLA-to-NAc neurons (c-Fos) ([6]; orchiectomized mice, acute treatment prior to SSDS)	activation of the other strong ERβ-projections to the NAc (c-Fos) ([6]; prefrontal, cingulate and insular cortex projections)
C[C@]12CC[C@@H]3c4ccc(O)cc4CC[C@H]3[C@@H]1CC[C@@H]2O [Example E2, 17β-Estradiol]	reverse this effect	decreases in the expression	increases C3 expression	prevented	prevented by the replacement of E2	reversed	activated at a significantly higher degree	activation of any of the other strong ERβ-projections to the NAc in response to E2 was observed
C[C@]12CC[C@H]3[C@@H](CCC4=CC(=O)CC[C@@]43C)[C@@H]1CC[C@@H]2O [Testosterone, testosterone]	prevented by testosterone	–	–	prevented	–	reversed	–	–
